In patent publication US8338108B2, “Agent for promoting the production of thioredoxin” (Kyoto University, priority 2006, dated 2012):

Test system: A549 cells
Assay: Cytoprotective action to stimulation by cigarette smoke extract (LDH assay)
Format: cell-based, human
Details: NAC 0.1 mM, FIG. 2
Description: A549 cells were pre-incubated for 16 hours with addition of a test substance (0.01 U/mL) in a DMEM medium wherefrom thiol was removed. Incubation was conducted for 6 hours more after addition of a cigarette smoke extract […] and, after that, LDH in the supernatant liquid of the culture was measured by means of an LDH assay (Roche Diagnostics) and used as an index for viability of the cells. The cigarette smoke extract (CSE) was prepared using a cigarette smoke generator SG-200 (Shibata Kagaku). Thus, smoke of ten cigarettes (Kentucky Research Cigarette 2R4F) which was passed through 10 mL of DMEM wherefrom thiol was removed (10% HEPES was added thereto) was defined as 100% CSE and used after appropriately diluting to the concentrations which were suitable for the experiments.

Compound: CC(=O)N[C@@H](CS)C(=O)O [NAC, N-acetylcysteine]
- cell injury by CSE, effect of the extract compared with NAC: identical
